Literature values in patent US9283189B2, “Sustained-release preparation of ivabradine or pharmaceutically acceptable salts thereof” (Jiangsu Hengrui Medicine Co., Ltd., priority 2011, dated 2016).

Tests used:
[1] = test system: chronic stable angina

In the case of `COc1cc2c(cc1OC)CC(=O)N(CCCN(C)CC1Cc3cc(OC)c(OC)cc31)CC2` (centres unmarked) [Ivabradine], the “Average plasma concentration at steady state” value (5 mg twice daily, CV=38%) is given as 10 ng/mL, the “Main half-life in plasma” value (70˜75% of the AUC) is given as 2 h and the Maximum plasma concentration (chronic administration, 5 mg twice daily, CV=29%) is given as 22 ng/mL. For the same compound, the “Volume of distribution at steady state” value (in patients) was roughly 100 L, the Effective half-life (in vivo) was 11 h and the Plasma protein bound (in vivo) was “approximately 70%”. For the same compound, the Renal clearance (in vivo) was “approximately 70 ml/min”, the Total clearance (in vivo) was “about 400 ml/min” and the “Oral dose excreted unmetabolized in urine” value (in vivo, po) was “About 4%”. The “Time to peak plasma level” value (oral administration, fasting condition) was “about 1 hour”, the “Kinetics (dose proportionality)” value (oral dose range of 0.5 mg˜24 mg) was “linear” and the Angina attacks ([1]; 5 mg and 7.5 mg twice daily, patients with chronic stable angina) was “significant decrease”. The “Influence on glucose or lipid metabolism” value ([1]; human, in vivo) was “no influence” and the “Rebound effect following the withdrawal of treatment” value ([1]; human, in vivo) was “no rebound effect”.
